Assay [1] addresses T1, Complex of human HDAC3 and human NCOR2 (Homo sapiens, UniProt O15379).
T1 construct: full length with C-terminal His tag, MW=49.7 kDa; His (C); host or cells: baculovirus expression system (co-expressed)
The experiment in a line: HDAC3 biochemical assay, AMC-labeled peptide substrate. As to conditions: read-out: HDAC Isoform IC50 (nM) 3. The gist of the method:
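Two-stage fluorogenic read: compounds incubated 1 h at 30° C with 50 μM RHKK(Ac)AMC and 0.1 ng/ul HDAC3–NCOR2(395-489) complex (Tris pH8.0, NaCl, KCl, MgCl2, BSA, 1% DMSO). Developer digestion of deacetylated product gives signal at Ex 360/Em 460.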

The next assay concerns the target T2, Recombinant human HDAC6 (Homo sapiens, UniProt Q9UBN7).
T2 construct: full length, MW=159 kDa; GST (N); host or cells: Sf9 insect cells (baculovirus)
T2 sequence (Q9UBN7 1-1215): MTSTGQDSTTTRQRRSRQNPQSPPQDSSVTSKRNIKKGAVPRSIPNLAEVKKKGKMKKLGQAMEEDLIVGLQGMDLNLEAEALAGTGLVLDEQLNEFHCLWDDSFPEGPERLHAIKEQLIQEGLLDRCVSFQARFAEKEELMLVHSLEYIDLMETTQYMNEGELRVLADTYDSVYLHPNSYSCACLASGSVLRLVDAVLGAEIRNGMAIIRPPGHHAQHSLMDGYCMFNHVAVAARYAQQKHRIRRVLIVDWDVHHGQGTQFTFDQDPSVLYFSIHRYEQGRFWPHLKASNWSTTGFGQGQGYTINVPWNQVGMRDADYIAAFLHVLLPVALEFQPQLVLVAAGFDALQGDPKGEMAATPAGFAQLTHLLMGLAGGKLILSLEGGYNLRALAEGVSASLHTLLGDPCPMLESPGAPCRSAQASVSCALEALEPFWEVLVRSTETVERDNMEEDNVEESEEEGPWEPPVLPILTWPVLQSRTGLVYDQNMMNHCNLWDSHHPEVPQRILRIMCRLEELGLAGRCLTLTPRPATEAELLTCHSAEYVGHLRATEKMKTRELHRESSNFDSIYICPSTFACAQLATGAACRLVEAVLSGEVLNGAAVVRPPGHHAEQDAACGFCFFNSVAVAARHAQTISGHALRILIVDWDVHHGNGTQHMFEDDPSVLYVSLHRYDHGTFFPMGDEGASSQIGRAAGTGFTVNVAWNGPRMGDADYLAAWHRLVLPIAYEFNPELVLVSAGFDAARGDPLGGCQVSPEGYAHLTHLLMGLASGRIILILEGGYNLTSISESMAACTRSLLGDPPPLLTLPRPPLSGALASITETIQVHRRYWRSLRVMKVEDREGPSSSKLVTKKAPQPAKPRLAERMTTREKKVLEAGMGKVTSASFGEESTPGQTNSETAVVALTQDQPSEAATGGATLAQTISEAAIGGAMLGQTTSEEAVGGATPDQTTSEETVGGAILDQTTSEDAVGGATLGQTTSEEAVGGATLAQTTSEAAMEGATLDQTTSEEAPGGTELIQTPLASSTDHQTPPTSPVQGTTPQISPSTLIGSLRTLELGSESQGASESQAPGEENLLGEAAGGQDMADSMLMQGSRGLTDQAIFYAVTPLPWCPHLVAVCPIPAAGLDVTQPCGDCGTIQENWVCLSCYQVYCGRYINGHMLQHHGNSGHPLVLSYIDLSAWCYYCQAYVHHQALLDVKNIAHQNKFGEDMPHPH
Kind of assay: HDAC6 biochemical assay, AMC-labeled peptide substrate. As to conditions: HDAC6; read-out: HDAC Isoform IC50 (nM) 6. The gist of the method: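 Two-step fluorogenic read-out: enzyme deacetylates 50 μM RHKK(Ac)AMC for 1 h at 30° C in pH 8.0 Tris buffer with BSA and 1% DMSO, then developer cleavage gives signal at Ex 360/Em 460. Enzyme: 0.3 ng/ul recombinant full-length human HDAC6, GST-tagged, Sf9-expressed.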

The target in another assay is T3, Human HDAC11 (Homo sapiens, UniProt Q96DB2).
T3 construct: Human HDAC11 (full length); His (N); host or cells: baculovirus expression system
T3 sequence (Q96DB2 1-347): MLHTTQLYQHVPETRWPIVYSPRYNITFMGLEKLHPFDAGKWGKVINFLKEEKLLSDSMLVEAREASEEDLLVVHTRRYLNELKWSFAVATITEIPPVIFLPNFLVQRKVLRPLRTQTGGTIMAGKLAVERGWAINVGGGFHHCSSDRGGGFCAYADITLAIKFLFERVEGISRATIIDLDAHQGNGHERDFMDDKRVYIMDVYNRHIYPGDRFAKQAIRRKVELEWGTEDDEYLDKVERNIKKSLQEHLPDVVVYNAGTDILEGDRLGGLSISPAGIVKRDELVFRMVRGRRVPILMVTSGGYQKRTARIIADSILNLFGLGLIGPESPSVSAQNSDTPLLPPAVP
The experiment in a line: HDAC11 biochemical assay, class IIa-specific substrate. Particulars: read-out: HDAC Isoform IC50 (nM) 11. The gist of the method: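 Full-length N-His human HDAC11 from baculovirus, 5 ng/μl, incubated with 50 μM Boc-Lys(trifluoroacetyl)-AMC for 30 min at 30 °C. Buffer: 50 mM Tris-HCl pH 8.0, 137 mM NaCl, 2.7 mM KCl, 1 mM MgCl2, 1 mg/mL BSA, 1% DMSO. Developer releases AMC; fluorescence read at 360/460 nm.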

The structures appear in SMILES notation.

T1 sequence (O15379 whole entry): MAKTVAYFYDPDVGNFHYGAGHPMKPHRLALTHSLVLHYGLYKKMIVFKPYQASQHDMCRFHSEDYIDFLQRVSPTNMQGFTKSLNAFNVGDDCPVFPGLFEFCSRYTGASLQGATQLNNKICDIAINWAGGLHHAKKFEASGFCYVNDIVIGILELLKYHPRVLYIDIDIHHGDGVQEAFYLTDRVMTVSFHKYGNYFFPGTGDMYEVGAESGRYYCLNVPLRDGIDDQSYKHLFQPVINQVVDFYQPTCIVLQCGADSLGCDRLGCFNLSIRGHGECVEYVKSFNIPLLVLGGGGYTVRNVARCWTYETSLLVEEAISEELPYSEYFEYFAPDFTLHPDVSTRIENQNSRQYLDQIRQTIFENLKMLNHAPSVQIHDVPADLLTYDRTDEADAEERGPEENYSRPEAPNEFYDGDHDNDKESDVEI
T1 sequence (Q9Y618 395-489 partner limits assumed): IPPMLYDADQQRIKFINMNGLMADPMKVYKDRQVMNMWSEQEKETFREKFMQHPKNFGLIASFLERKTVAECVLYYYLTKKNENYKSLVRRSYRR

The term IC50 denotes the concentration at which inhibition is half-maximal. As for `FC(F)(F)c1ccc(N(Cc2ccc(-c3noc(C(F)(F)F)n3)s2)c2cnccn2)nn1` [Example DH, N-(Pyrazin-2-yl)-6-(trifluoromethyl)-N-({5-[5-(trifluoromethyl)-1,2,4-oxadiazol-3-yl]thiophen-2-yl}methyl)pyridazin-3-amine], the figures for the IC50 (in assay [1]; at Recombinant human HDAC6; on Human HDAC11) were at most 10000 nM, at most 500 nM and above 10000 nM, respectively.
In the same order, the values of `FC(F)(F)c1nc(-c2ccc(CN(c3ccncn3)c3cnccn3)s2)no1` [Example BZ, N-(Pyrazin-2-yl)-N-({5-[5-(trifluoromethyl)-1,2,4-oxadiazol-3-yl]thiophen-2-yl}methyl)pyrimidin-4-amine] are above 10000 nM, at most 500 nM and above 10000 nM.
The like results for `FC(F)(F)c1nc(-c2ccc(CN(c3cncnc3)c3cnccn3)s2)no1` [Example CR, N-(Pyrazin-2-yl)-N-({5-[5-(trifluoromethyl)-1,2,4-oxadiazol-3-yl]thiophen-2-yl}methyl)pyrimidin-5-amine] were, in that order, above 10000 nM, at most 500 nM and above 10000 nM.
As to `FC(F)(F)c1nc(-c2ccc(CN(c3ccccn3)c3cnccn3)s2)no1` [Example V, N-(Pyridin-2-yl)-N-({5-[5-(trifluoromethyl)-1,2,4-oxadiazol-3-yl]thiophen-2-yl}methyl)pyrazin-2-amine], the 50% inhibitory concentration (IC50) in assay [1] was above 10000 nM; at Recombinant human HDAC6 it was at most 500 nM; at Human HDAC11, above 10000 nM.
Regarding `FC(F)(F)c1nc(-c2ccc(CN(c3cnccn3)c3ccc(N4CCCC4)nn3)s2)no1` [Example DI, N-(Pyrazin-2-yl)-6-(pyrrolidin-1-yl)-N-({5-[5-(trifluoromethyl)-1,2,4-oxadiazol-3-yl]thiophen-2-yl}methyl)pyridazin-3-amine], the IC50 in assay [1] was at most 10000 nM; on Recombinant human HDAC6, at most 500 nM; at Human HDAC11, above 10000 nM.
In the case of `CS(=O)(=O)c1nccc(N(Cc2ccc(-c3noc(C(F)(F)F)n3)s2)c2cnccn2)n1` [Example CE, 2-Methanesulfonyl-N-(pyrazin-2-yl)-N-({5-[5-(trifluoromethyl)-1,2,4-oxadiazol-3-yl]thiophen-2-yl}methyl)pyrimidin-4-amine], at Recombinant human HDAC6, the IC50 is at most 500 nM.
`CS(=O)(=O)c1ccc(N(Cc2ccc(-c3noc(C(F)(F)F)n3)s2)c2cnccn2)nn1` [Example DL, 6-Methanesulfonyl-N-(pyrazin-2-yl)-N-({5-[5-(trifluoromethyl)-1,2,4-oxadiazol-3-yl]thiophen-2-yl}methyl)pyridazin-3-amine]: the IC50 in assay [1] is above 10000 nM; at Recombinant human HDAC6 it was at most 500 nM; at Human HDAC11, above 10000 nM.
